Test results from US20250214962A1, “PYRIDINONE DERIVATIVES AS SELECTIVE CYTOTOXIC AGENTS AGAINST HIV INFECTED CELLS” (Merck Sharp & Dohme LLC, priority 2019, published 2025).
Read-outs that look alike come from different tables or passages of the source.

Columns and labels:
[1] = Viking EC50, 50% NHS; type: cell-based; conditions: method not described, read-out: Viking EC50_50% NHS
[2] = system: infected PBMCs (VSV-G pseudotyped HIV virus); test: cells; type: cell-based, human; conditions: read-out: SMACK EC50_50% NHS

| SMILES | EC50 [1] | EC50 ([2]; Homo sapiens, PBMC) | EC50 [2] |
| --- | --- | --- | --- |
| Cc1c(C#N)cc(Cl)cc1Oc1c(C(F)(F)F)ncn(Cc2cc(F)c[nH]c2=O)c1=O [Example 19, 5-chloro-3-((1-((5-fluoro-2-oxo-1,2-dihydropyridin-3-yl)methyl)-6-oxo-4-(trifluoromethyl)-1,6-dihydropyrimidin-5-yl)oxy)-2-methylbenzonitrile] | 30.7 nM | 376 nM | – |
| Cc1c(C#N)cc(C(F)F)cc1Oc1c(C(F)(F)C(F)F)ncn(Cc2cc(F)c[nH]c2=O)c1=O [Example 14, 5-(Difluoromethyl)-3-((1-((5-Fluoro-2-Oxo-1,2-Dihydropyridin-3-Yl)Methyl)-6-Oxo-4-(1,1,2,2-Tetrafluoroethyl)-1,6-Dihydropyrimidin-5-Yl)Oxy)-2-Methylbenzonitrile] | 29.5 nM | 101 nM | – |
| Cc1c(C#N)cc(C(F)F)cc1Oc1c(C(F)(F)C(F)F)ncn(Cc2ccc[nH]c2=O)c1=O [Example 17, 5-(difluoromethyl)-2-methyl-3-((6-oxo-1-((2-oxo-1,2-dihydropyridin-3-yl)methyl)-4-(1,1,2,2-tetrafluoroethyl)-1,6-dihydropyrimidin-5-yl)oxy)benzonitrile] | 17.1 nM | 218 nM | – |
| Cc1ccc(Cn2cnc(C(C)(F)F)c(Oc3cc(Cl)cc(C#N)c3F)c2=O)c(=O)[nH]1 [Example 3, 5-chloro-3-((4-(1,1-difluoroethyl)-1-((6-methyl-2-oxo-1,2-dihydropyridin-3-yl)methyl)-6-oxo-1,6-dihydropyrimidin-5-yl)oxy)-2-fluorobenzonitrile] | 14.1 nM | 87.6 nM | – |
| Cc1cc(C)c(Cn2cnc(C(F)(F)CF)c(Oc3cc(C(F)F)cc(C#N)c3C)c2=O)c(=O)[nH]1 [Example 41, 5-(difluoromethyl)-3-((1-((4,6-dimethyl-2-oxo-1,2-dihydropyridin-3-yl)methyl)-6-oxo-4-(1,1,2-trifluoroethyl)-1,6-dihydropyrimidin-5-yl)oxy)-2-methylbenzonitrile] | 59.8 nM | 283 nM | – |
| Cc1cc(C)c(Cn2cnc(C(F)(F)C(F)F)c(Oc3cc(C#N)cc(C(F)F)c3)c2=O)c(=O)[nH]1 [Example 40, 3-(difluoromethyl)-5-((1-((4,6-dimethyl-2-oxo-1,2-dihydropyridin-3-yl)methyl)-6-oxo-4-(1,1,2,2-tetrafluoroethyl)-1,6-dihydropyrimidin-5-yl)oxy)benzonitrile] | 39.2 nM | 283 nM | – |
| CC(F)c1ncn(Cc2ccc(CO)[nH]c2=O)c(=O)c1Oc1cc(Cl)cc(C#N)c1F (single isomer, unassigned) [Example 33, 5-Chloro-2-Fluoro-3-((4-(1-Fluoroethyl)-1-((6-(Hydroxymethyl)-2-Oxo-1,2-Dihydropyridin-3-Yl)Methyl)-6-Oxo-1,6-Dihydropyrimidin-5-Yl)Oxy)Benzonitrile] | 23.1 nM | – | 389 nM |
| CC(O)c1ccc(Cn2cnc(C(F)(F)C(F)F)c(Oc3cc(Cl)cc(C#N)c3F)c2=O)c(=O)[nH]1 (single isomer, unassigned) [Example 34] | 43.1 nM | 270 nM | – |
| Cc1c(C#N)cc(C(F)F)cc1Oc1c(C(F)(F)C(F)F)ncn(Cc2ccc(CCCO)[nH]c2=O)c1=O [Example 28, 5-(difluoromethyl)-3-((1-((6-(3-hydroxypropyl)-2-oxo-1,2-dihydropyridin-3-yl)methyl)-6-oxo-4-(1,1,2,2-tetrafluoroethyl)-1,6-dihydropyrimidin-5-yl)oxy)-2-methylbenzonitrile] | – | 73.8 nM | – |
| Cc1c(C#N)cc(C(F)F)cc1Oc1c(C(F)(F)C(F)F)ncn(Cc2cc(Br)c[nH]c2=O)c1=O [Example 11, 3-((1-((5-bromo-2-oxo-1,2-dihydropyridin-3-yl)methyl)-6-oxo-4-(1,1,2,2-tetrafluoroethy)-1,6-dihydropyrimidin-5-yl)oxy)-5-(difluoromethyl)-2-methylbenzonitrile] | – | 402 nM | – |
| Cc1cc(C#N)cc(Oc2c(C(C)(F)F)ncn(Cc3c(C)cc(C)[nH]c3=O)c2=O)c1 [Example 15, 3-((4-(1,1-difluoroethyl)-1-((4,6-dimethyl-2-oxo-1,2-dihydropyridin-3-yl)methyl)-6-oxo-1,6-dihydropyrimidin-5-yl)oxy)-5-methylbenzonitrile] | 21.9 nM | 384 nM | – |
| Cc1c(C#N)cc(C(F)F)cc1Oc1c(C(F)(F)C(F)F)ncn(Cc2ccc(CO)[nH]c2=O)c1=O [Example 25, 5-(Difluoromethyl)-3-((1-((6-(Hydroxymethyl)-2-Oxo-1,2-Dihydropyridin-3-Yl)Methyl)-6-Oxo-4-(1,1,2,2-Tetrafluoroethyl)-1,6-Dihydropyrimidin-5-Yl)Oxy)-2-Methylbenzonitrile] | 19.6 nM | 72.7 nM | – |
| CC(F)c1ncn(Cc2ccc(CO)[nH]c2=O)c(=O)c1Oc1cc(Cl)cc(C#N)c1F (single isomer, unassigned) [Example 32, 5-Chloro-2-Fluoro-3-((4-(1-Fluoroethyl)-1-((6-(Hydroxymethyl)-2-Oxo-1,2-Dihydropyridin-3-Yl)Methyl)-6-Oxo-1,6-Dihydropyrimidin-5-Yl)Oxy)Benzonitrile] | 18.2 nM | 377 nM | – |
| Cc1ccc(Cn2cnc(C(F)(F)C(F)(F)F)c(Oc3cc(Cl)cc(C#N)c3F)c2=O)c(=O)[nH]1 [Example 21, 5-Chloro-2-Fluoro-3-((1-((6-Methyl-2-Oxo-1,2-Dihydropyridin-3-Yl)Methyl)-6-Oxo-4-(Perfluoroethyl)-1,6-Dihydropyrimidin-5-Yl)Oxy)Benzonitrile] | 76.8 nM | 152 nM | – |
| N#Cc1cc(Cl)cc(Oc2c(C(F)(F)C(F)F)ncn(Cc3ccc[nH]c3=O)c2=O)c1Cl [Example 8, 2,5-dichloro-3-((6-oxo-1-((2-oxo-1,2-dihydropyridin-3-yl)methyl)-4-(1,1,2,2-tetrafluoroethyl)-1,6-dihydropyrimidin-5-yl)oxy)benzonitrile] | 26.9 nM | 495 nM | – |
| Cc1cc(C#N)c(C)c(Oc2c(C(F)(F)C(F)F)ncn(Cc3c(C)cc(C)[nH]c3=O)c2=O)c1 [Example 24, 3-((1-((4,6-Dimethyl-2-Oxo-1,2-Dihydropyridin-3-Yl)Methyl)-6-Oxo-4-(1,1,2,2-Tetrafluoroethyl)-1,6-Dihydropyrimidin-5-Yl)Oxy)-2,5-Dimethylbenzonitrile] | 168 nM | 346 nM | – |
| COCc1ccc(Cn2cnc(C(F)(F)C(F)F)c(Oc3cc(C(F)F)cc(C#N)c3C)c2=O)c(=O)[nH]1 [Example 26, 5-(difluoromethyl)-3-((1-((6-(methoxymethyl)-2-oxo-1,2-dihydropyridin-3-yl)methyl)-6-oxo-4-(1,1,2,2-tetrafluoroethyl)-1,6-dihydropyrimidin-5-yl)oxy)-2-methylbenzonitrile] | 29.3 nM | 90.1 nM | – |
| Cc1cc(C)c(Cn2cnc(C(F)(F)F)c(Oc3cc(C(F)F)cc(C#N)c3C)c2=O)c(=O)[nH]1 [Example 42, 5-(Difluoromethyl)-3-((1-((4,6-Dimethyl-2-Oxo-1,2-Dihydropyridin-3-Yl)Methyl)-6-Oxo-4-(Trifluoromethyl)-1,6-Dihydropyrimidin-5-Yl)Oxy)-2-Methylbenzonitrile] | 43.1 nM | 222 nM | – |
| Cc1c(C#N)cc(C(F)F)cc1Oc1c(C(F)(F)F)ncn(Cc2ccc[nH]c2=O)c1=O [Example 16, 5-(difluoromethyl)-2-methyl-3-((6-oxo-1-((2-oxo-1,2-dihydropyridin-3-yl)methyl)-4-(trifluoromethyl)-1,6-dihydropyrimidin-5-yl)oxy)benzonitrile] | 7.08 nM | 268 nM | – |
| N#Cc1cc(Cl)cc(Oc2c(C(F)(F)C(F)F)ncn(Cc3ccc(CO)[nH]c3=O)c2=O)c1F [Example 31, 5-Chloro-2-Fluoro-3-((1-((6-(Hydroxymethyl)-2-Oxo-1,2-Dihydropyridin-3-Yl)Methyl)-6-Oxo-4-(1,1,2,2-Tetrafluoroethyl)-1,6-Dihydropyrimidin-5-Yl)Oxy)Benzonitrile] | 20.7 nM | 86.8 nM | – |
| N#Cc1cc(Cl)cc(Oc2c(C(F)(F)C(F)(F)F)ncn(Cc3cc(F)c[nH]c3=O)c2=O)c1F [Example 20, 5-chloro-2-fluoro-3-((1-((5-fluoro-2-oxo-1,2-dihydropyridin-3-yl)methyl)-6-oxo-4-(perfluoroethyl)-1,6-dihydropyrimidin-5-yl)oxy)benzonitrile] | 83.7 nM | 99 nM | – |
| N#Cc1cc(Cl)cc(Oc2c(C(F)(F)F)ncn(Cc3cc(F)c[nH]c3=O)c2=O)c1F [Example 37, 5-chloro-2-fluoro-3-((1-((5-fluoro-2-oxo-1,2-dihydropyridin-3-yl)methyl)-6-oxo-4-(trifluoromethyl)-1,6-dihydropyrimidin-5-yl)oxy)benzonitrile] | 32.4 nM | 413 nM | – |
| Cc1ccc(Cn2cnc(C(F)(F)F)c(Oc3cc(Cl)cc(C#N)c3F)c2=O)c(=O)[nH]1 [Example 4, 5-chloro-2-fluoro-3-((1-((6-methyl-2-oxo-1,2-dihydropyridin-3-yl)methyl)-6-oxo-4-(trifluoromethyl)-1,6-dihydropyrimidin-5-yl)oxy)benzonitrile] | 41.1 nM | 197 nM | – |
| Cc1cc(C)c(Cn2cnc(C(C)(F)F)c(Oc3cc(Cl)cc(C#N)c3F)c2=O)c(=O)[nH]1 [Example 2, 5-chloro-3-((4-(1,1-difluoroethyl)-1-((4,6-dimethyl-2-oxo-1,2-dihydropyridin-3-yl)methyl)-6-oxo-1,6-dihydropyrimidin-5-yl)oxy)-2-fluorobenzonitrile] | 37.4 nM | 294 nM | – |
| Cc1ccc(Cn2cnc(C(F)(F)C(F)F)c(Oc3cc(Cl)cc(C#N)c3F)c2=O)c(=O)[nH]1 [Example 39, 5-Chloro-2-Fluoro-3-((1-((6-Methyl-2-Oxo-1,2-Dihydropyridin-3-Yl)Methyl)-6-Oxo-4-(1,1,2,2-Tetrafluoroethyl)-1,6-Dihydropyrimidin-5-Yl)Oxy)Benzonitrile] | 33.5 nM | 162 nM | – |
| Cc1cc(C)c(Cn2cnc(C(F)(F)C(F)F)c(Oc3c(C)cc(C#N)cc3C)c2=O)c(=O)[nH]1 [Example 10, 4-((1-((4,6-dimethyl-2-oxo-1,2-dihydropyridin-3-yl)methyl)-6-oxo-4-(1,1,2,2-tetrafluoroethyl)-1,6-dihydropyrimidin-5-yl)oxy)-3,5-dimethylbenzonitrile] | – | 246 nM | – |
